Consider 10 molecules from PubChem BioAssay AID180 (DTP/NCI, 2004).

The experiment deals with BDF1 mice, Adenocarcinoma 755 s.c., tumor weight T/C. The experiment can be described thus: NCI In Vivo Anticancer Drug Screen. Data for tumor model Adenocarcinoma 755 (subcutaneous) in B6D2F1 (BDF1) mice. The conditions noted are these: endpoint: mean tumor weight, schedule: Q01DX011 (ip), higher = larger tumour. A digest of the protocol:
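Compound activity was tested in mice carrying transplanted tumors. Survival or tumor size was measured, and each value is the treated-group measurement divided by that of the vehicle-treated control group (T/C).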

For orientation: T/C means the ratio of treated to control.

“And” between values parts separate entries of the source, which are not always exact repeats. Equal entries are not always repeated.

As to `CC(CNC(=O)CCBr)NC(=O)CCBr` (stereo not given), the T/C runs as follows: (dose: 37.5 mg/kg/injection, vehicle: carboxymethylcellulose (CMC)) 79 % of control and 81 % of control; (dose: 75.0 mg/kg/injection, vehicle: carboxymethylcellulose (CMC)) 26 % of control and 36 % of control; (dose: 150.0 mg/kg/injection, vehicle: carboxymethylcellulose (CMC)) 10 % of control and 19 % of control.
Regarding `O=C1Cc2ccccc2C(=O)N1`, the T/C by setting is: (dose: 7.5 mg/kg/injection, vehicle: carboxymethylcellulose (CMC)) 79 % of control; (dose: 15.0 mg/kg/injection, vehicle: carboxymethylcellulose (CMC)) 104 % of control; (dose: 30.0 mg/kg/injection, vehicle: carboxymethylcellulose (CMC)) 107 % of control; (dose: 60.0 mg/kg/injection, vehicle: carboxymethylcellulose (CMC)) 56 % of control.
As to `CC(=O)N1CCCCC1`, the T/C was 92 % of control (dose: 12.5 mg/kg/injection, vehicle: other); 69 % of control (dose: 25.0 mg/kg/injection, vehicle: other); 73 % of control (dose: 50.0 mg/kg/injection, vehicle: other); 85 % of control (dose: 100.0 mg/kg/injection, vehicle: other).
As for `O=Cc1ccccc1`, the T/C (dose: 3.12 mg/kg/injection, vehicle: Klucel (hydroxypropylcellulose) (HPC)) was 80 % of control; the T/C (dose: 6.25 mg/kg/injection, vehicle: Klucel (hydroxypropylcellulose) (HPC)) was 52 % of control; the T/C (dose: 12.5 mg/kg/injection, vehicle: Klucel (hydroxypropylcellulose) (HPC)) is 72 % of control; the T/C (dose: 25.0 mg/kg/injection, vehicle: Klucel (hydroxypropylcellulose) (HPC)) is 109 % of control; the T/C (dose: 50.0 mg/kg/injection, vehicle: Klucel (hydroxypropylcellulose) (HPC)) is 106 % of control; the T/C (dose: 100.0 mg/kg/injection, vehicle: Klucel (hydroxypropylcellulose) (HPC)) is 80 % of control. Besides, the T/C was 55 % of control (dose: 200.0 mg/kg/injection, vehicle: Klucel (hydroxypropylcellulose) (HPC)) and 56 % of control (dose: 400.0 mg/kg/injection, vehicle: Klucel (hydroxypropylcellulose) (HPC)).
`CCOC(=O)Sc1ncnc2nc[nH]c12`: the T/C (dose: 0.21 mg/kg/injection, vehicle: carboxymethylcellulose (CMC)) was 87 % of control; the T/C (dose: 0.42 mg/kg/injection, vehicle: carboxymethylcellulose (CMC)) was 41 % of control; the T/C (dose: 0.85 mg/kg/injection, vehicle: carboxymethylcellulose (CMC)) was 50 % of control; the T/C (dose: 1.75 mg/kg/injection, vehicle: carboxymethylcellulose (CMC)) was 3 % of control and 7 % of control and 12 % of control; the T/C (dose: 3.5 mg/kg/injection, vehicle: carboxymethylcellulose (CMC)) is 4 % of control; the T/C (dose: 7.0 mg/kg/injection, vehicle: carboxymethylcellulose (CMC)) was 1 % of control and 5 % of control. For the same molecule, the T/C is, setting by setting: (dose: 14.0 mg/kg/injection, vehicle: carboxymethylcellulose (CMC)) 2 % of control and 8 % of control; (dose: 28.0 mg/kg/injection, vehicle: carboxymethylcellulose (CMC)) 8 % of control; (dose: 56.0 mg/kg/injection, vehicle: carboxymethylcellulose (CMC)) 8 % of control; (dose: 112.0 mg/kg/injection, vehicle: carboxymethylcellulose (CMC)) 7 % of control.
On to `Nc1nc(I)c2ncn(C3OC(CO)C(O)C3O)c2n1` (stereo not given), for which the T/C was 113 % of control (dose: 30.0 mg/kg/injection, vehicle: saline); 121 % of control (dose: 60.0 mg/kg/injection, vehicle: saline); 82 % of control (dose: 120.0 mg/kg/injection, vehicle: saline); 62 % of control (dose: 240.0 mg/kg/injection, vehicle: saline); 9 % of control (dose: 400.0 mg/kg/injection, vehicle: saline); 47 % of control (dose: 600.0 mg/kg/injection, vehicle: saline).
As to `c1ncc2[nH]cnc2n1`, the T/C is, setting by setting: (dose: 27.33 mg/kg/injection, vehicle: carboxymethylcellulose (CMC)) 71 % of control; (dose: 49.34 mg/kg/injection, vehicle: carboxymethylcellulose (CMC)) 80 % of control; (dose: 54.67 mg/kg/injection, vehicle: carboxymethylcellulose (CMC)) 82 % of control; (dose: 62.5 mg/kg/injection, vehicle: methylcellulose (MC)) 68 % of control; (dose: 98.68 mg/kg/injection, vehicle: carboxymethylcellulose (CMC)) 71 % of control; (dose: 109.35 mg/kg/injection, vehicle: carboxymethylcellulose (CMC)) 91 % of control. The T/C by setting is: (dose: 125.0 mg/kg/injection, vehicle: methylcellulose (MC)) 57 % of control; (dose: 173.2 mg/kg/injection, vehicle: carboxymethylcellulose (CMC)) 101 % of control; (dose: 197.35 mg/kg/injection, vehicle: carboxymethylcellulose (CMC)) 69 % of control; (dose: 218.7 mg/kg/injection, vehicle: carboxymethylcellulose (CMC)) 123 % of control; (dose: 250.0 mg/kg/injection, vehicle: methylcellulose (MC)) 54 % of control; (dose: 288.66 mg/kg/injection, vehicle: carboxymethylcellulose (CMC)) 72 % of control. Further, where the note is “dose: 394.7 mg/kg/injection, vehicle: carboxymethylcellulose (CMC)”, the T/C is 35 % of control.
In the case of `CS(=O)(=O)OCCC(=O)Nc1ccc(NC(=O)CCOS(C)(=O)=O)cc1`, the T/C is, setting by setting: (dose: 46.0 mg/kg/injection, vehicle: methylcellulose (MC)) 117 % of control; (dose: 91.0 mg/kg/injection, vehicle: methylcellulose (MC)) 111 % of control; (dose: 183.0 mg/kg/injection, vehicle: methylcellulose (MC)) 85 % of control; (dose: 375.0 mg/kg/injection, vehicle: methylcellulose (MC)) 117 % of control.
In the case of `CCCCCCCCOP(=O)(N1CC1)N1CC1`, the T/C reads like this: (dose: 0.1 mg/kg/injection, vehicle: saline) 75 % of control and 79 % of control; (dose: 0.2 mg/kg/injection, vehicle: saline) 65 % of control and 80 % of control; (dose: 1.0 mg/kg/injection, vehicle: saline) 29 % of control; (dose: 2.0 mg/kg/injection, vehicle: saline) 57 % of control and 66 % of control; (dose: 4.5 mg/kg/injection, vehicle: saline) 56 % of control and 66 % of control.
`C[C@H](CCC(=O)O)[C@H]1CC[C@H]2[C@@H]3[C@H](O)C[C@@H]4C[C@H](O)CC[C@]4(C)[C@H]3C[C@H](O)[C@]12C` (tested in a mixture with another compound): the T/C was 31 % of control and 53 % of control (dose: 80.0 mg/kg/injection, vehicle: methylcellulose (MC)); 76 % of control (dose: 160.0 mg/kg/injection, vehicle: methylcellulose (MC)); 36 % of control (dose: 320.0 mg/kg/injection, vehicle: methylcellulose (MC)).
